Source: US20250204247A1, “DISPLAY APPARATUS AND ELECTRONIC DEVICE” (SEMICONDUCTOR ENERGY LABORATORY CO., LTD., priority 2022, published 2025)

Assay: Solubility test in water (visual inspection for an insoluble residue)
Assay type: physicochemical
Details: for solubility in water relative to the solubility of hpp2Py in water: fraction of the hpp2Py solubility in water
Procedure: In a sample bottle (capacity: 20 mL) was put 1.16 mg of 1,1′-(9,9′-spirobi[9H-fluorene]-2,7-diyl)bis(1,3,4,6,7,8-hexahydro-2H-pyrimido[1,2-a]pyrimidine) (abbreviation: 2,7hpp2SF), and 0.5 mL of water was added thereto. This mixture was irradiated with ultrasonic waves for one minute. A precipitated white powder was found by visual inspection for an insoluble residue. After further addition of 0.5 mL of water and one-minute ultrasonic wave irradiation, a precipitated white powder was found by visual inspection. This procedure was repeatedly executed until the dissolution was confirmed by visual inspection.
The precipitated white powder was found until the total amount of water reached 3.0 mL. After further addition of 0.5 mL of water and ultrasonic wave irradiation, no precipitated white powder was found.
In a sample bottle (capacity: 100 mL) was put 1.08 mg of 1-(9,9′-spirobi[9H-fluorene]-2-yl)-1,3,4,6,7,8-hexahydro-2H-pyrimido[1,2-a]pyrimidine) (abbreviation: 2hppSF), and 50 mL of water was added thereto. A precipitated white powder was found by visual inspection for an insoluble residue. When 10 mL of water was further added, the precipitated white powder was not observed by visual inspection.
In a sample bottle (capacity: 5 mL) was put 50.2 mg of 1,1′-pyridine-2,6-diyl-bis(1,3,4,6,7,8-hexahydro-2H-pyrimido[1,2-a]pyrimidine) (abbreviation: hpp2Py), and 1.0 mL of water was added thereto. The dissolution was found by visual inspection for an insoluble residue.

Q: For `c1ccc2c(c1)-c1ccccc1C21c2cc(N3CCCN4CCCN=C43)ccc2-c2ccc(N3CCCN4CCCN=C43)cc21` [2,7hpp2SF, 1,1′-(9,9′-spirobi[9H-fluoren]-2,7-diyl)bis(1,3,4,6,7,8-hexahydro-2H-pyrimido[1,2-a]pyrimidine)], which “solubility in water relative to the solubility of hpp2Py in water” value is on record?
A: Its value is “less than or equal to 1/10”.

Q: Which “weight which can be dissolved in 1.0 mL of water” value (per 1.0 mL of water, dissolution confirmed by visual inspection) does the source give for `c1cc(N2CCCN3CCCN=C32)nc(N2CCCN3CCCN=C32)c1` [hpp2Py, 1,1′-pyridine-2,6-diyl-bis(1,3,4,6,7,8-hexahydro-2H-pyrimido[1,2-a]pyrimidine), reference compound] here?
A: Its value is “greater than or equal to 50.2 mg”.

Q: With `c1ccc2c(c1)-c1ccccc1C21c2ccccc2-c2ccc(N3CCCN4CCCN=C43)cc21` [2hppSF, 1-(9,9′-spirobi[9H-fluoren]-2-yl)-1,3,4,6,7,8-hexahydro-2H-pyrimido[1,2-a]pyrimidine] as the molecule, how does the “solubility in water relative to the solubility of hpp2Py in water” value read?
A: The value was “less than or equal to 1/10”.
